In US5990170A, “Therapeutic use of mono and bicarboxylic acid amides active at the peripheral cannabinoid receptor” (Lifegroup S.p.A., priority 1994, dated 1999):
“Also recorded” adds a separate entry of the source. Like-named read-outs stand apart in the source and are kept apart here.

Key:
[1] = molecular target: T1, CB2 receptor (RBL-2H3 cell membranes) (Rattus norvegicus, UniProt Q9QZN9); assay: Saturation curve of labelled receptor agonist 3H-WIN 55,212-2 on RBL-2H3 cell membranes; assay type: binding; conditions: 0.5 to 20 nM 3H-WIN 55,212-2; 30 μg membrane proteins; 30° C., 60 min
T1 construct: Preparation of Plasmatic Membranes of RBL-2H3 Cells; endogenous in cells; host or cells: RBL-2H3 (rat basophilic leukemia) cell membranes
T1 sequence (Q9QZN9 1-360): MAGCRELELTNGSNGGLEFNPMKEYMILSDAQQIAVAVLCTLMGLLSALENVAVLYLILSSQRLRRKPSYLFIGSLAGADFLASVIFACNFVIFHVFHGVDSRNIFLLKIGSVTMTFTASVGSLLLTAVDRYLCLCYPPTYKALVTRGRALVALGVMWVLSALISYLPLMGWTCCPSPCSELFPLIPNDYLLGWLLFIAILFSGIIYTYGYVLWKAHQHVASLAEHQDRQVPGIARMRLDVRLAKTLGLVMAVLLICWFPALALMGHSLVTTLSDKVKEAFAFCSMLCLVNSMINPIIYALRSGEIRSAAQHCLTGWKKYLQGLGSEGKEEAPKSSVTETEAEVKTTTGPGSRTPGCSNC
Procedure: (§1) RBL-2H3 cells (100×10^6), frozen at -80° C., were thawed with 4 ml of Tris-HCl buffer solution 50 mM (pH 7.4), added with 0.25% w/v of Tripsin inhibitor, TYPE II-S: SOY BEAN® (distributed by Sigma). The cells were resuspended in the buffer and homogenized. The homogenate was centrifuged at 1500×g at 4° C. for 10 min. The supernatant obtained was collected and the precipitate was resuspended in 4 ml of the previous buffer. The resuspended precipitate was homogenized and centrifuged again at 1500×g at 4° C. for 5-10 min. The resulting supernatant was combined to the supernatant previously obtained and centrifuged at 5000×g for 10 min. After centrifugation, the supernatant was collected and further centrifuged at 40,000×g at 4° C. for 30 min. The resulting precipitate was resuspended in 0.5 ml of the buffer solution described above, with addition of 1% Bovine Serum Albumin fatty acid free. The obtained suspension was centrifuged at 40,000×g at 4° C. for 30 min. The resulting precipitate was collected and resuspended in buffer solution containing 50 mM Tris HCl, 1 mM Tris-EDTA, 3 mM MgCl2, pH 7.4, in order to obtain a proteic concentration of 1 μg/μl approx. This preparation may be used fresh, or frozen at -80° C. and utilized within few days.

physchem = conditions: chloroform, organic solvent or mixture
RBL-2H3 cells = assay: Inhibition of 3H-serotonin release induced by ADNP/DNP-HSA immunogenic stimulation in RBL-2H3 cells; assay type: cell-based, rat; conditions: for inhibition at 10 µM: RBL-2H3, 10 μM, 1% DMSO and 0.1% ethanol (Table 4), read-out: 3H-serotonin net release inhibition (%); for inhibition at 12.5 µM: RBL-2H3, read-out: 3H-serotonin net release inhibition (%), 12.5 μM
[2] = Solubility in water and organic solvents; conditions: result in words
[3] = molecular target: T1, CB2 receptor (RBL-2H3 cell membranes); assay: Competitive displacement of 3H-WIN 55,212-2 binding to RBL-2H3 cell membranes; conditions: competitor 10 μM
[4] = molecular target: T1, CB2 receptor (RBL-2H3 cell membranes); assay: as above; conditions: for inhibition at 10 µM: read-out: % Displacement
Procedure: as §1
Non-radioactive WIN 55,212-2 (1 μM) was used to inhibit specific binding. […] The competitors were added to the binding mixture prior to the labelled ligand. In both cases, for an evaluation of the reference specific binding, ethanol and DMSO were added at the same final concentration to the total binding and to the aspecific one, also in the absence of competitors.
WIN 55,212-2 was used at a concentration of 3 μM, whereas the other compounds were used at a concentration of 10 μM.
Incubation was carried out in the presence of 1% DMSO. The values of Inhibitory Concentration 50 (IC50) are expressed as means ± SEM, after the number of experiments reported hereinbelow.

CB1 central receptor [5] = conditions: result in words; Devane et al., 1992; cited from earlier work
CB1 central receptor [6] = conditions: result in words; cited from earlier work
activated macrophages = conditions: result in words; Fischer-Stenger et al., 1993; cited from earlier work

Cc1c(C(=O)c2cccc3ccccc23)c2cccc3c2n1C(CN1CCOCC1)CO3 (stereo not drawn) [3H-WIN 55,212-2]
Bmax [1]: 100 to 250 pM

CCCCCCCCCCCCCCCCCC(=O)NCCO [Example 23, N-(2-hydroxyethyl)-stearoylamide]
solubility (physchem): > 5000 µg/mL
inhibition at 60 µM (RBL-2H3 cells; Rattus norvegicus, RBL-2H3, read-out: 3H-serotonin release inhibition %, 0.2% DMSO, 60 μM (Table 8)): 60%
inhibition at 100 µM (RBL-2H3 cells; Rattus norvegicus, RBL-2H3, read-out: 3H-serotonin release inhibition %, 1% DMSO, 100 μM (Table 8)): 91%
EC50 (RBL-2H3 cells; Rattus norvegicus, RBL-2H3, read-out: EC50, concentration inhibiting by 50% the net release of 3H serotonin, 1% DMSO, 15 minutes release period (Table 9)): 11 µM
IC50 (RBL-2H3 cells; read-out: ED50, inhibition of 3H-serotonin release, + anandamide (12.5 μM) (Table 5), 15 min): 10.1 µM
IC50 (RBL-2H3 cells; read-out: ED50, inhibition of 3H-serotonin release, - anandamide (Table 5), 15 min): 2.4 µM

CCCCCCCCCCCCCCCC(=O)NCCO [Example 25, N-palmitoylethanolamide]
solubility in organic solvents [2]: in hot MetOH, CHCl3, DMSO
solubility in water [2]: insoluble
Specific binding ([3]; 0.1% DMSO): 1103
IC50 [4]: 1 ± 0.55 nM
inhibition at 10 µM [4]: 23%
binding to the central receptor (CB1 central receptor [5]): not able to bind to the central receptor
inhibition at 10 µM (RBL-2H3 cells; Rattus norvegicus, + anandamide (12.5 μM)): 0%
inhibition at 10 µM (RBL-2H3 cells; Rattus norvegicus, - anandamide): 100%
activity at 10 µM (RBL-2H3 cells; Rattus norvegicus, RBL-2H3, 0.25 h, 10 μM (minimum effective concentration), 1% DMSO and 0.1% ethanol (Table 3), read-out: 3H-serotonin net release (%)): 0%
IC50 (RBL-2H3 cells; Rattus norvegicus, RBL-2H3, 0.25 h, 1% DMSO and 0.1% ethanol (Table 3), read-out: ED50 (the source's name)): 2.6 µM
functional effect following receptor activation (serotonin release) (RBL-2H3 cells; result in words): can inhibit the effects induced by mast cell activation and exert an effect that is higher than or comparable to the one of cannabinoids
functional effect following receptor activation (serotonin release) (RBL-2H3 cells; result in words, listed as palmitoylethanolamide): capable of functionally activating the peripheral receptor

CCCCC/C=C\C/C=C\C/C=C\C/C=C\CCCC(=O)NCCO [anandamide, arachidonylethanolamide, reference compound]
Specific binding ([3]; 0.1% ethanol): 99
inhibition at 10 µM [4]: 95%
binding to the peripheral receptor ([4]; result in words): able to bind to the receptor and to compete; also recorded: having binding affinity for the peripheral receptor
inhibition at 12.5 µM (RBL-2H3 cells; Rattus norvegicus, + WIN 55,212-2 (30 μm) (Table 6)): 15%
inhibition at 12.5 µM (RBL-2H3 cells; Rattus norvegicus, - WIN (Table 6)): 7%
3H-serotonin net release (%) (RBL-2H3 cells; concentration not given, 0.1% DMSO and 0.1% ethanol (Table 3), 15 min): 100%
antagonism of the protective effects of cannabinoids (RBL-2H3 cells; result in words): competitive antagonism on the peripheral receptor
functional effect following receptor activation (serotonin release) (RBL-2H3 cells; result in words): unable to affect serotonin release; also recorded: is not able to induce biological effects
functional activation of CB1 central receptor (CB1 central receptor [6]): can functionally activate CB1 central receptor

CCCCCc1cc(O)c2c(c1)OC(C)(C)[C@@H]1CCC(C)=C[C@@H]21 [Δ9-THC, Δ9-tetrahydrocannabinol, reference compound]
activity at 25 µM (RBL-2H3 cells; Rattus norvegicus, RBL-2H3, 0.25 h, read-out: 3H-serotonin net release (%)): 27%
IC50 (RBL-2H3 cells; Rattus norvegicus, RBL-2H3, 0.25 h, read-out: ED50): 5 µM
inhibition at 25 µM (RBL-2H3 cells; Rattus norvegicus, RBL-2H3, read-out: 3H-serotonin net release inhibition (%), 25 μM, - anandamide (Table 4)): 73%
functional effect following receptor activation (serotonin release) (RBL-2H3 cells; result in words): able to inhibit, in a concentration-dependent way, RBL cells immunogenic activation
effect on cytolytic activity of activated macrophages (activated macrophages): decreases the cytolytic activity of activated macrophages
